Data from PubChem BioAssay AID2658 (Sanford-Burnham Center for Chemical Genomics, 2010).
Values joined by “and” are separate entries in the source; they are usually repeats but may differ in a detail not shown here. Equal entries are not always repeated. Active and inactive are the calls of the source. How the calls were made is not given here.

Target: Ubiquitin-conjugating enzyme E2 N (Homo sapiens) (UniProt P61088)
Assay: inhibition of Ubc13-driven ubiquitin chain assembly – biochemical, TR-FRET, Uev1a, selectivity assay, SAR follow-up (AID 2658)
Details: Ubc13/Uev1a polyubiquitination, in vitro

Chain of Ubiquitin-conjugating enzyme E2 N (Homo sapiens) (P61088 whole entry, looked up): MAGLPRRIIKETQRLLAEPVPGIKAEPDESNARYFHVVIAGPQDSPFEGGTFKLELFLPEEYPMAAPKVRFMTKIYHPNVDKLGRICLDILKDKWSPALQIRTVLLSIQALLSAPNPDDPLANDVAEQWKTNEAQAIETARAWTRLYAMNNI

Row | Structure (SMILES) | IC50
1 | Cc1ccc(NC(=O)Cn2c(O)c(N=NC(=O)c3cc4ccccc4cc3O)c3ccccc32)cc1 | > 100 µM (inactive)
2 | O=C(O)c1ccc(C2Nc3ccc(F)cc3C3C=CCC32)cc1 (stereo not drawn) | > 100 µM (inactive)
3 | Clc1ccc2c(c1)C1C=CCC1C(c1ccccc1)N2 (stereo not drawn) | > 100 µM (inactive)
4 | CC(=O)NC1C(=O)N(CCN2CCOCC2)c2ccc(F)cc21 (stereo not drawn) | > 100 µM (inactive)
5 | S=c1[nH]nc(-c2cc(-c3ccccc3)n[nH]2)n1N=Cc1ccc(Cl)c(Cl)c1 | > 100 µM (inactive)
6 | COC(=O)c1cccc(-c2ccc(C(c3c(C)[nH][nH]c3=O)c3c(C)[nH][nH]c3=O)o2)c1 | > 100 µM (inactive)
7 | C/C(=N\OCc1nc2ccccc2c(=O)n1/N=C/c1cc(Br)ccc1O)c1ccccc1 | > 100 µM (inactive)
8 | NS(=O)(=O)c1ccc2c(c1)C1C=CCC1C(c1ccc([N+](=O)[O-])cc1)N2 (stereo not drawn) | > 100 µM (inactive)
9 | N=C(N)c1ccc2cc(OC(=O)c3ccc(N=C(N)N)cc3)ccc2c1 | 14 µM
10 | C/C(=N\OCc1nc2ccccc2c(=O)n1/N=C/c1ccc(Cl)cc1)c1ccccc1 | > 100 µM (inactive)
11 | C=CCC(Nc1ccccc1)C12C=CC(O1)C(C(=O)OC)=C2C(=O)OC (stereo not drawn) | > 100 µM (inactive)
12 | CC(=NOCc1nc2ccccc2c(=O)n1N=Cc1cc(C)cc([N+](=O)[O-])c1O)c1ccccc1 | > 100 µM (inactive)
13 | C=CCn1c(NS(=O)(=O)c2ccccc2)c(S(=O)(=O)c2ccc(C)cc2)c2nc3ccccc3nc21 | > 100 µM (inactive)
14 | O=C(O)c1ccc2c(c1)C1C=CCC1C(c1ccc(F)cc1)N2 (stereo not drawn) | > 100 µM (inactive)
15 | Cc1ccc(S(=O)(=O)N(C)C)cc1NC(=O)c1cc(-c2ccco2)nc2ccccc12 | > 100 µM (inactive)
16 | O=C1c2oc3ccccc3c(=O)c2C(c2ccccc2)N1c1nccs1 (stereo not drawn) | > 100 µM (inactive)
17 | Fc1ccc(C2Nc3ccccc3C3C=CCC32)cc1 (stereo not drawn) | > 100 µM (inactive)
18 | Cc1ccsc1C=Nc1ccc(F)cc1 | > 100 µM (inactive)
19 | Cc1ccsc1C=Nc1ccccc1O | > 100 µM (inactive)
20 | S=c1[nH]nc(-c2cc(-c3ccccc3)n[nH]2)n1N=Cc1ccc(Br)s1 | > 100 µM (inactive)

Row | Structure (SMILES) | IC50
21 | O=C(Nc1ccccc1N1CCOCC1)c1cc(-c2ccco2)nc2ccccc12 | > 100 µM (inactive)
22 | Cc1ccccc1NC(=O)Cn1c(O)c(N=NC(=O)c2ccccc2O)c2ccccc21 | 98 µM
23 | O=C(N=Nc1c(O)n(Cc2ccccc2)c2ccccc12)c1cc2ccccc2cc1O | > 100 µM (inactive)
24 | CCCCn1c(NC(=O)c2ccccc2Cl)c(C#N)c2nc3ccccc3nc21 | > 100 µM (inactive)
25 | Cc1ccc(Nc2cc3ccccc3c(=O)[nH]2)cc1 | > 100 µM (inactive)
26 | O=c1[nH]c(Nc2ccccc2)cc2ccccc12 | > 100 µM (inactive)
27 | O=C(O)c1ccc2c(c1)C1C=CCC1C(c1ccccc1)N2 (stereo not drawn) | > 100 µM (inactive)
28 | Cc1c(Cl)cccc1NS(=O)(=O)c1ccc2c(c1)C1C=CCC1C(c1ccc(C(=O)O)cc1)N2 (stereo not drawn) | > 100 µM (inactive)
29 | O=C(N=Nc1c(O)[nH]c2ccc([N+](=O)[O-])cc12)c1ccccc1Cl | > 100 µM (inactive)
30 | O=C(/C=C/c1cccs1)Nc1scc(-c2ccccc2)c1C(=O)O | 78.4 µM
31 | CCOc1cc(C2c3c(oc4ccccc4c3=O)C(=O)N2c2nccs2)ccc1O (stereo not drawn) | > 100 µM (inactive)
32 | Cc1ccc(N=Cc2sccc2C)cc1C | > 100 µM (inactive)
33 | COC(=O)c1ccc2c(c1)C1C=CCC1C(c1ccc(C(=O)O)cc1)N2 (stereo not drawn) | > 100 µM (inactive)
34 | O=C(NNc1cc(N2CCCC2)nc(N2CCCC2)n1)c1ccc([N+](=O)[O-])cc1 | > 100 µM (inactive)
35 | CCN(CC)CCNC(=O)c1cc(-c2ccco2)nc2ccccc12 | > 100 µM (inactive)
36 | COc1ccc(-n2c(NC(=O)c3ccc(Br)o3)c(C#N)c3nc4ccccc4nc32)cc1 | > 100 µM (inactive)
37 | O=[N+]([O-])c1ccc2[nH]c(O)c(N=NC(=S)Nc3cccnc3)c2c1 | > 100 µM (inactive)
38 | Cc1ccc(O)c(N=Cc2ccc(C)s2)c1 | > 100 µM (inactive)
39 | C/C(=N\OCc1nc2ccccc2c(=O)n1/N=C/c1ccccc1O)c1ccccc1 | > 100 µM (inactive)
40 | O=C(O)c1ccc(NS(=O)(=O)c2ccc3c(c2)C2C=CCC2C(c2ccccc2F)N3)cc1 (stereo not drawn) | > 100 µM (inactive)

Next, values leading:

Row | IC50 | Structure (SMILES)
41 | > 100 µM (inactive) | COc1ccccc1C(=O)NC(=O)COC(=O)c1cc(-c2ccco2)nc2ccccc12
42 | 92.6 µM | O=C(COC(=O)c1cc(-c2ccco2)nc2ccccc12)NC(=O)c1ccccc1
43 | 83 µM | COc1ccc(CNC(=O)C(C)OC(=O)c2cc(-c3ccco3)nc3ccccc23)cc1 (stereo not drawn)
44 | > 100 µM (inactive) | O=C(OCC(=O)N1CCc2ccccc2C1)c1cc(-c2ccco2)nc2ccccc12
45 | 34.6 µM | COc1ccc(CNC(=O)COC(=O)c2cc(-c3ccco3)nc3ccccc23)cc1
46 | > 100 µM (inactive) | COc1ccccc1CNC(=O)CCOC(=O)c1cc(-c2ccco2)nc2ccccc12
47 | > 100 µM (inactive) | COc1ccccc1CCNC(=O)COC(=O)c1cc(-c2ccco2)nc2ccccc12
48 | 92.6 µM | COc1ccc(CCNC(=O)COC(=O)c2cc(-c3ccco3)nc3ccccc23)cc1OC
49 | 93.1 µM | O=C(OCC(=O)N1CCN(C(=O)c2ccco2)CC1)c1cc(-c2ccco2)nc2ccccc12
50 | > 100 µM (inactive) | O=C(NN=Cc1ccc(F)cc1)c1cc(-c2ccco2)nc2ccccc12
51 | 60.2 µM | COc1ccccc1CNC(=O)COC(=O)c1cc(-c2ccco2)nc2ccccc12
52 | > 100 µM (inactive) | O=C(COC(=O)c1cc(-c2ccco2)nc2ccccc12)NCc1cccc(Cl)c1
53 | > 100 µM (inactive) | CN(Cc1ccc(F)cc1)C(=O)COC(=O)c1cc(-c2ccco2)nc2ccccc12
54 | > 100 µM (inactive) | COc1ccc(CNC(=O)c2cc(-c3ccco3)nc3ccccc23)cc1
55 | > 100 µM (inactive) | COC(=O)c1ccc(CNC(=O)COC(=O)c2cc(-c3ccco3)nc3ccccc23)cc1
56 | > 100 µM (inactive) | CCNC(=O)COC(=O)c1cc(-c2ccco2)nc2ccccc12
57 | > 100 µM (inactive) | COc1ccc(CNC(=O)CCOC(=O)c2cc(-c3ccco3)nc3ccccc23)cc1
58 | 25.8 µM and 23.3 µM | O=C(N/N=C/c1cccc(F)c1)c1cc(-c2ccco2)nc2ccccc12
59 | 47.2 µM | CN(C(=O)COC(=O)c1cc(-c2ccco2)nc2ccccc12)C1CCS(=O)(=O)C1 (stereo not drawn)
60 | > 100 µM (inactive) | COc1ccccc1CNC(=O)CNC(=O)c1cc(-c2ccco2)nc2ccccc12
61 | > 100 µM (inactive) | COc1ccc(CNC(=O)COC(=O)c2cc(-c3ccco3)nc3ccccc23)cc1OC
62 | 82.5 µM | COc1ccccc1CNC(=O)COC(=O)c1cc(-c2cccs2)nc2ccccc12
63 | > 100 µM (inactive) | COc1ccc(CCNC(=O)COC(=O)c2cc(-c3ccco3)nc3ccccc23)cc1
64 | > 100 µM (inactive) | COc1ccccc1CNC(=O)c1cc(-c2ccco2)nc2ccccc12
65 | 72.7 µM | O=C(COC(=O)c1cc(-c2ccco2)nc2ccccc12)NCc1ccc(F)cc1
66 | 73.4 µM and 74.4 µM | O=C(COC(=O)c1cc(-c2ccco2)nc2ccccc12)NCc1ccc(Cl)cc1
67 | > 100 µM (inactive) | COc1ccc(CNC(=O)COC(=O)c2cc(-c3ccco3)nc3ccccc23)c(OC)c1
68 | 58.9 µM | Cc1ccc(CNC(=O)COC(=O)c2cc(-c3ccco3)nc3ccccc23)cc1
